Measured values from patent publication US9181231B2, “Pyruvate kinase activators for use for increasing lifetime of the red blood cells and treating anemia” (AGIOS PHARMACEUTICALS, INC, priority 2011, dated 2015).

Columns and labels:
Type in all cases: biochemical
Details in all cases: compound at 1 μM
PKR wt = PKR wt (Homo sapiens, UniProt P30613); assay: PKR Wide Type Single Point Percent Activation Assay
Description: PKR Wide Type Single Point Percent Activation Assay
(§1) A compound described herein was diluted with DMSO and tested at 1 μM concentration. The enzyme was diluted in 1× Buffer: (100 mM KCl, 50 mM Tris 7.5, 5 mM MgCl2, 1 mM DTT, 0.03% BSA). 2 μL of compound solution was first added into wells, and then 180 μL of enzyme solution was added. Assays were assembled except for ADP, and plates were stored for 60 minutes at RT. 20 μL ADP was added to start the assay and assay output was evaluated using OD340 at SpectraMax. The assay was run at room temperature.
PKR wt (100 ng/well), Tris pH 7.5 (50 mM), KCl (100 mM), MgCl2 (5 mM), ADP (0.48 mM), PEP (0.15 mM), NADH (180 μM), LDH (0.5 units, Sigma 59023), DTT (1 mM) and BSA (0.03%).

PKR R532W = PKR R532W (Homo sapiens, UniProt P30613, R532W); assay: PKR R532W Single Point Percent Activation Assay
Description: PKR R532W Single Point Percent Activation Assay
as §1
PKR R532W (100 ng/well), Tris pH 7.5 (50 mM), KCl (100 mM), MgCl2 (5 mM), ADP (0.36 mM), PEP (0.1 mM), NADH (180 μM), LDH (0.5 units, Sigma 59023), DTT (1 mM) and BSA (0.03%).

PKR R510Q = PKR R510Q (Homo sapiens, UniProt P30613, R510Q); assay: PKR R510Q Single Point Percent Activation Assay
Description: PKR R510Q Single Point Percent Activation Assay
as §1
PKR R510Q (40 ng/well), Tris pH 7.5 (50 mM), KCl (100 mM), MgCl2 (5 mM), ADP (0.2 mM), PEP (0.11 mM), NADH (180 μM), LDH (0.5 units, Sigma 59023), DTT (1 mM) and BSA (0.03%).

PKR T384W = PKR T384W Single Point Percent Activation Assay
Description: PKR T384W Single Point Percent Activation Assay
as §1, with “180 μL enzyme solution” for “180 μL of enzyme solution”
PKR T384W soluble (300 ng/well), Tris pH 7.5 (50 mM), KCl (100 mM), MgCl2 (5 mM), ADP (0.08 mM), PEP (0.23 mM), NADH (180 μM), LDH (0.5 units, Sigma 59023), DTT (1 mM) and BSA (0.03%).

PKR R532W, sequence (P30613 whole entry R532W): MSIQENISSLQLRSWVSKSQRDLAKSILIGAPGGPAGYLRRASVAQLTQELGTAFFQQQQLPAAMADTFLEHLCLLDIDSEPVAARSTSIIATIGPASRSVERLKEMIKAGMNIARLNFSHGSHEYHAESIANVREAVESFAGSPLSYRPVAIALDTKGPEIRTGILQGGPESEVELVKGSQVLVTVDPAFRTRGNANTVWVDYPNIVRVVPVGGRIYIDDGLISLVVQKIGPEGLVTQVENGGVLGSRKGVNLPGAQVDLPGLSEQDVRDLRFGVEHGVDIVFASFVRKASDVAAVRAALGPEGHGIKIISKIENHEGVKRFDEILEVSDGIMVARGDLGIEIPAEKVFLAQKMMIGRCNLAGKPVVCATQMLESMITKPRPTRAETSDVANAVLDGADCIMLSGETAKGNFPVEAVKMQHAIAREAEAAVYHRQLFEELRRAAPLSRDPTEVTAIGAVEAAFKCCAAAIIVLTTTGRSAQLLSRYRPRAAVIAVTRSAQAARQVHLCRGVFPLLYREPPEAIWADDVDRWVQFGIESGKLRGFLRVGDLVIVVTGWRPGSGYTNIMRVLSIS
PKR wt, sequence (P30613 whole entry): as the sequence (P30613 whole entry R532W) above, with W532R counted along it
PKR R510Q, sequence (P30613 whole entry R510Q): as the sequence (P30613 whole entry R532W) above, with R510Q, W532R counted along it

SMILES	% Act. WT (PKR wt)	% Act. R532W (PKR R532W)	% Act. R510Q (PKR R510Q)	% Act. T384W (PKR T384W)
O=C1Oc2ccc(S(=O)(=O)Nc3ccc(F)c(Cl)c3)cc2CN1Cc1ccccc1	B (a % activation at 1 μM of from 101 to 500)	B (a % activation at 1 μM of from 101 to 500)	B (a % activation at 1 μM of from 101 to 500)	B (a % activation at 1 μM of from 101 to 500)
O=C(c1c(F)cccc1F)N1CCN(S(=O)(=O)c2ccc3c(c2)OCCO3)CC1	B (a % activation at 1 μM of from 101 to 500)	B (a % activation at 1 μM of from 101 to 500)	B (a % activation at 1 μM of from 101 to 500)	B (a % activation at 1 μM of from 101 to 500)
CN1c2cc(S(=O)(=O)Nc3cccc(F)c3)ccc2OC(=O)[C@@H]1Cc1ccccc1	B (a % activation at 1 μM of from 101 to 500)	A (a % activation at 1 μM of from 1 to 100)	B (a % activation at 1 μM of from 101 to 500)	B (a % activation at 1 μM of from 101 to 500)
CN1C(=O)COc2ccc(S(=O)(=O)Nc3ccc(F)c(Cl)c3)cc21	B (a % activation at 1 μM of from 101 to 500)	B (a % activation at 1 μM of from 101 to 500)	B (a % activation at 1 μM of from 101 to 500)	B (a % activation at 1 μM of from 101 to 500)
O=C1Nc2cc(S(=O)(=O)Nc3cccc(F)c3)ccc2NC1Cc1ccccc1 (stereo not shown)	B (a % activation at 1 μM of from 101 to 500)	B (a % activation at 1 μM of from 101 to 500)	B (a % activation at 1 μM of from 101 to 500)	B (a % activation at 1 μM of from 101 to 500)
CN1c2ccc(S(=O)(=O)Nc3cccc(F)c3)cc2NC(=O)C1Cc1ccccc1 (stereo not shown)	B (a % activation at 1 μM of from 101 to 500)	B (a % activation at 1 μM of from 101 to 500)	B (a % activation at 1 μM of from 101 to 500)	B (a % activation at 1 μM of from 101 to 500)
O=C1CN(Cc2ccccc2)c2cc(S(=O)(=O)Nc3cccc(Cl)c3)ccc2O1	A (a % activation at 1 μM of from 1 to 100)	A (a % activation at 1 μM of from 1 to 100)	B (a % activation at 1 μM of from 101 to 500)	A (a % activation at 1 μM of from 1 to 100)
